Data from US8961624B2, “Ortho-phenylphenol compounds as markers for liquid hydrocarbons and other fuels and oils” (Dow Global Technologies LLC, priority 2011, dated 2015).

Tests used:
[1] = Solubility of Ex. 13 Product (cold storage of 10% w/w solution in AROMATIC 200); type: physicochemical; settings: 10% w/w solution in AROMATIC 200, −11° C. freezer for 2 weeks
Experimental: Solubility of Ex. 13 Product: A solution (10% w/w) in AROMATIC 200 was prepared at room temperature. The clear solution was placed in a −11° C. freezer for 2 weeks.

[2] = Solubility in organic solvents at −10° C.; type: physicochemical; settings: for soluble at (concentration) in tetralin / soluble at (concentration) in DMAc / soluble at (concentration) in NMP / soluble at (concentration) in dipropylene glycol dimethyl ether: −10° C.; for soluble at (concentration) in AROMATIC 200: AROMATIC 200, −10° C.

Row | Structure (SMILES) | crystallization from solution on cold storage [1] | soluble at (concentration) in tetralin [2] [%] | melting point [°C] | soluble at (concentration) in AROMATIC 200 [2] [%] | soluble at (concentration) in DMAc [2] [%] | soluble at (concentration) in NMP [2] [%] | soluble at (concentration) in dipropylene glycol dimethyl ether [2] [%]
1 | O=C(Oc1ccccc1-c1ccccc1)c1ccccc1 [Ex. 13 Product, [1,1′-biphenyl]-2-yl benzoate] | No visibly detectable crystallization occurred | – | – | – | – | – | –
2 | CCCCCCCCCCCCCCCCCCOc1ccccc1-c1ccccc1 [2-(octadecyloxy)-1,1′-biphenyl] | – | < 5 | 42 to 45 | – | – | – | –
3 | c1ccc(-c2ccccc2OCc2ccccc2COc2ccccc2-c2ccccc2)cc1 [1,2-bis(([1,1′-biphenyl]-2-yloxy)-methyl)benzene] | – | 10 | – | 10 | 10 | 10 | 10
4 | c1ccc(-c2ccccc2OCc2ccc(-c3ccc(COc4ccccc4-c4ccccc4)cc3)cc2)cc1 [4,4′-bis(([1,1′-biphenyl]-2-yloxy)methyl)-1,1′-biphenyl] | – | – | 149 to 151 | – | – | 10 | –
5 | CCCCCCCCCCCCCCOc1ccccc1-c1ccccc1 [2-(tetradecyloxy)-1,1′-biphenyl] | – | 7.5 | – | – | – | – | –
6 | c1ccc(-c2ccccc2OCCCCOc2ccccc2-c2ccccc2)cc1 [1,4-bis([1,1′-biphenyl]-2-yloxy)butane] | – | – | 62 to 67 | – | 10 | 10 | 10
7 | CCCCCCCCCCCCOc1ccccc1-c1ccccc1 [2-(dodecyloxy)-1,1′-biphenyl] | – | 10 | 27 to 29 | 10 | – | – | 10
8 | c1ccc(-c2ccccc2OCc2ccc(COc3ccccc3-c3ccccc3)cc2)cc1 [1,4-bis(([1,1′-biphenyl]-2-yloxy)-methyl)benzene] | – | – | 140 to 142 | – | – | 10 | –
